Laboratory results reported in US11117918B2, “Enzyme-directed immunostimulant and uses thereof” (Washington State University, priority 2016, dated 2021).

What was measured:
[1] = test system: RAW-Blue cells; experiment: RAW-Blue colorimetric assay (NF-κB transcription); assay type: cell-based
Method: Measurement of RAW-Blue cell activation was performed similarly to manufacturer instructions. For the NF-κB assay, 1×10^5 RAW-Blue cells were seeded in an optically clear bottomed 96-well plate in 180 μL of complete assay media (identical to B16 media) at a density of 1×10^5 cells/well. For co-culture experiments with RAW-Blue and B16 or β-galactosidase-enriched B16 cells, RAW-Blue cells were seeded at a density of 1×10^5 cells/well and were allowed to adhere for 4 h before the addition of the B16 cells, which were seeded at a density of 1×10^5 cells/well. For co-culture experiments with RAW-Blue and β-galactosidase-enriched B16 cells, RAW-Blue cells were seeded at a density of 1×10^5 cells/well and were allowed to adhere for 4 h before the addition off β-galactosidase-enriched B16 cells, which were seeded at a density of 1×10^5 cells/well.
For experiments with β-gal, a stock solution (500 U/mL, where 1 U=1 μmol/min) was used. A final enzymatic activity of 1 U/well was achieved by addition of 2 μL of the 500 U/mL stock solution to each well. Imiquimod or (6) were prepared as 1.15 and 1.49 mg/mL stock solutions, respectively, in DMSO, and were added to the appropriate wells to achieve the specified final concentrations in each experiment ranging from 0.1 to 10 μM. […] The PNPP assays were incubated for 3 h (37° C., 5% CO2), and the absorbance was measured at 405 nm. […]

[2] = target: β-galactosidase (Escherichia coli, UniProt P00722); experiment: Conversion of Imiquimod-β-galactopyranoside (6) to Imiquimod by exogenous β-galactosidase, LC-MS/MS; assay type: biochemical, E. coli
Method: For LC-MS/MS experiments, mobile phase A consisted of 0.05% formic acid and 0.2% acetic acid in water, and mobile phase B comprised 90% acetonitrile, 9.9% water, and 0.1% formic acid. Using a flow rate of 400 μL/min, mobile phase B 5% isocratic for 0.5 min, before gradient to 95% B over 2.2 min, followed by 95% isocratic for 0.1 min. The total chromatographic assay time (including time to equilibrate for the next run) was 4.0 min per sample. Optimized mass spectrometer parameters were as follows: collision gas, 20 psig; curtain gas, 20 psig; ion source gas 1, 60 psig; ion source gas 2, 40 psig; ion spray voltage, 5500 V; desolvation temperature, 600° C.; declustering potential, 70 V; entrance potential, 10 V; collision energy, 50 V; collision cell exit potential, 10 V. The substrate was detected using multiple reaction monitoring mode by monitoring the m/z fragmentation from 597.8 to 241.2 Da for (6) and the Imiquimod product was monitored for 241.2 to 185.1 Da fragmentation.
To confirm the chemical identity of Imiquimod liberated by β-gal-mediated conversion of (6), an end-point assay was performed using 1 U of β-gal in 200 μL of 10 μm (6) incubated for 16 h (37° C., 5% CO2). To stop the reaction, 50 μL AO Quench Internal Standard (20 μg/mL 2-methyl-4(3H)-quinazolinone in 1 m formic acid) was added to the reaction. This aliquot was compared to a 200 μL sample of 10 μm (6) without β-gal enzyme.
To determine the conversion of Imiquimod-β-Galactopyranoside (6) to Imiquimod in the presence of β-gal over time for exogenous experiments, aliquots (200 μL) of (6) at a concentration of 5 μm in DPBS were incubated with β-gal (1 U, 37° C., 5% CO2). To stop the reaction at the specified time points (0, 1, 2 min), 50 μL AO Quench Internal Standard (20 μg/mL 2-methyl-4(3H)-quinazolinone in 1 m formic acid) was added to each individual reaction. Depletion of (6) was measured by LC-MS/MS for each time point. […] Similar to above, aliquots of (6) for various time points (0, 0.25, 0.5, 1, 2, 3 h) were tested for conversion to immunostimulant by exogenous β-galactosidase.
β-galactosidase from E. coli was diluted with sterile Dulbecco's Phosphate Buffer Saline (DPBS) to an initial concentration of 5,000 U/mL. Aliquots of this stock were diluted with additional DPBS to a concentration of 500 U/mL and 5 mU/mL. Because of the E. coli source for β-galactosidase, samples were filtered with a sterile 0.2 μm syringe filter to guard against potential residual bacteria. Absence of bacteria was confirmed prior to use; filtered samples were plated on an agar plate and incubated for 3 days (37° C., 5% CO2). No bacterial growth was observed from the filtered enzyme.

[3] = test system: AT3B-1 prostate cancer cell line (overexpresses P-glycoprotein 1); experiment: AT3B-1 cells treated with pro-immunostimulant, absorbance at 420 nm; assay type: cell-based, rat; settings: 10 mM dose, 2−200×10^4 cells/well, 72 h
Method: To evaluate the disclosed compounds for their effect against multidrug-resistant cells and possible pathogen infection, compound 6 was exposed to a multidrug-resistant AT3B-1 prostate cancer cell line that is known to overexpress P-glycoprotein 1 (P-gp). AT3B-1 cells were plated in an optically clear bottomed 96-well plate at a range of densities (2−200×10^4 cells/well) in 180 μL of complete cell media. Each cell density was tested in triplicate with and without a 10 mM dose of compound 6. For wells with compound 6, 20 μL of a 100 mM stock solution of compound 6 in DMSO was used. As a control experiment, compound 6 was converted by exogenous α-Mannosidase (0.1 U/mL) in triplicate. The plate was incubated (37° C., 5% CO2) for 72 h before measuring the absorbance at 420 nm.
The AT3B-1 cell line (ATCC CRL-2375, rat prostate epithelial malignant carcinoma) were grown in complete culture media composed of Roswell Park Memorial Institute (RPMI) 1640 medium with 4.5 g/L glucose, 2 mM L-glutamine, 10,000 U/mL penstrep, 10 mM HEPES and supplemented with 10% HI-FBS and 1 μM doxorubicin. Media was changed every 3-4 days omitting the doxorubicin, and cells were passaged once per week. Passaging involved changing media, counting, and seeding 3×10^5 cells in 35 mL of new complete media in a new T-175 culture flask.

Sequence of β-galactosidase (P00722 2-1024): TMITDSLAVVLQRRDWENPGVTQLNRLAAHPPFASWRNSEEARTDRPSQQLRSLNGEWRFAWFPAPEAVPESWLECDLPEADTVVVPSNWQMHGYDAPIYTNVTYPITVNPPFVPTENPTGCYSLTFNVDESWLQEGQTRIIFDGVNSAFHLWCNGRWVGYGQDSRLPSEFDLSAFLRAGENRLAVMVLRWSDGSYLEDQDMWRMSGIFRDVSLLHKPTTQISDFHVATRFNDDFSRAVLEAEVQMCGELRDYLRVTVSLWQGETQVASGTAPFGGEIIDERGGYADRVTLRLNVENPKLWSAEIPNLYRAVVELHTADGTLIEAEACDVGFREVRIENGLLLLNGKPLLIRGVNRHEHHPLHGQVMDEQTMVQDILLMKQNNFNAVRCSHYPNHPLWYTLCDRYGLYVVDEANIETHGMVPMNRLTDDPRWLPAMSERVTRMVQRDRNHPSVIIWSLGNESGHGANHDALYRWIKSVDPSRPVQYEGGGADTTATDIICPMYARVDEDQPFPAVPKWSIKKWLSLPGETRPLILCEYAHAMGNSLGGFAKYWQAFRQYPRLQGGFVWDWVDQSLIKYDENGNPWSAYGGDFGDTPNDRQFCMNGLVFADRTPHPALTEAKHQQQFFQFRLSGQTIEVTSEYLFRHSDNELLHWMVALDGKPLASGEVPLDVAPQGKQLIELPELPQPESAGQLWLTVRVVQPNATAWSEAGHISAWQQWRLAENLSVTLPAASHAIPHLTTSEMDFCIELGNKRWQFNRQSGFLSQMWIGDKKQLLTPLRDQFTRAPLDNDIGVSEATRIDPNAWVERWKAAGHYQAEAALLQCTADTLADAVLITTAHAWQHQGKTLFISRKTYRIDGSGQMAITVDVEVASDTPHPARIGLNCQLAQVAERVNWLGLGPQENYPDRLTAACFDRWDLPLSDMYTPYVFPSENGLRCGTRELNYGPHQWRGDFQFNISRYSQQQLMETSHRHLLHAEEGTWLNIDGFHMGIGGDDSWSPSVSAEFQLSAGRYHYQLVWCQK

“4-Imiquimod-2-nitrophenyl-galactopyranoside [compound 6]” was tested. Which NF-κB transcription ([1]; co-cultures of β-galactosidase-enriched B16 cells and RAW-Blue cells, relative to unaltered B16 co-cultures or RAW-Blue cells alone) did it give?
Its NF-κB transcription is “enhanced”.

What about the RAW-Blue cell activity ([1]; compound alone, relative to compound with 1 U β-galactosidase or Imiquimod, 16 h) of the same substance?
The RAW-Blue cell activity was “abrogated”.

And the “depletion of (6)” value ([2]; 5 μm in DPBS, β-gal 1 U, 0, 1, 2 min)?
The value was “rapid depletion”.

And the “stability without β-gal enzyme (no residual Imiquimod observed)” value ([2]; 10 μm (6) without β-gal enzyme)?
Its value is “stable”.

What about the “conversion to Imiquimod (depletion of (6) and formation of Imiquimod)” value ([2]; exogenous β-galactosidase 5 mU, over 3 h) of the same substance?
The value was “near quantitative conversion”.

What about the “conversion into Imiquimod” value ([2]; β-galactosidase 1 U, 2 nmol (200 μL of 10 μm), 16 h, 37° C.) of the same substance?
Its value is “quantitative conversion”.

And the “interaction with P-gp” value [3]?
The value was “interacting with P-gp”.
